Reference: PubChem BioAssay AID248 (DTP/NCI, 2004)
Where “and” joins values, the source holds several entries; their conditions need not be identical. Equal values may be shown once. Toxic doses and inconclusive results are not listed. No stated cut-off is given here; in the data, active means T/C of 150% or more; inactive means T/C below 125%.

Test system: L1210 leukemia ip in BDF1 mice, survival T/C
Test: NCI In Vivo Anticancer Drug Screen. Data for tumor model L1210 Leukemia (intraperitoneal) in B6D2F1 (BDF1) mice
Settings: endpoint: mean survival time, higher = longer survival
How it was run: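 Survival endpoint. Drug-treated group vs vehicle group, expressed as T divided by C. Tumor passaged by transplantation.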

[1] = dose: 100.0 mg/kg/injection, schedule: Q01DX009 (ip), vehicle: saline with Tween-80
[2] = dose: 100.0 mg/kg/injection, schedule: Q04DX003 (ip), vehicle: saline with Tween-80
[3] = dose: 200.0 mg/kg/injection, schedule: Q01DX009 (ip), vehicle: saline with Tween-80
[4] = dose: 200.0 mg/kg/injection, schedule: Q04DX003 (ip), vehicle: saline with Tween-80
[5] = dose: 100.0 mg/kg/injection, schedule: Q01DX001 (ip), vehicle: carboxymethylcellulose (CMC)
[6] = dose: 200.0 mg/kg/injection, schedule: Q01DX001 (ip), vehicle: carboxymethylcellulose (CMC)
[7] = dose: 400.0 mg/kg/injection, schedule: Q01DX001 (ip), vehicle: carboxymethylcellulose (CMC)
[8] = dose: 50.0 mg/kg/injection, schedule: Q01DX001 (ip), vehicle: carboxymethylcellulose (CMC)
[9] = dose: 100.0 mg/kg/injection, schedule: Q01DX001 (ip), vehicle: Klucel (hydroxypropylcellulose) (HPC)
[10] = dose: 200.0 mg/kg/injection, schedule: Q01DX001 (ip), vehicle: Klucel (hydroxypropylcellulose) (HPC)
[11] = dose: 400.0 mg/kg/injection, schedule: Q01DX001 (ip), vehicle: Klucel (hydroxypropylcellulose) (HPC)
[12] = dose: 100.0 mg/kg/injection, schedule: Q04DX003 (ip), vehicle: Klucel (hydroxypropylcellulose) (HPC)
[13] = dose: 200.0 mg/kg/injection, schedule: Q04DX003 (ip), vehicle: Klucel (hydroxypropylcellulose) (HPC)
[14] = dose: 400.0 mg/kg/injection, schedule: Q04DX003 (ip), vehicle: Klucel (hydroxypropylcellulose) (HPC)
[15] = dose: 100.0 mg/kg/injection, schedule: Q04DX003 (ip), vehicle: saline
[16] = dose: 200.0 mg/kg/injection, schedule: Q04DX003 (ip), vehicle: saline

Measured: T/C

CCc1ccc(NC(=O)Nc2ccc(Cl)cc2)cc1
inactive: dose: 100.0 mg/kg/injection, schedule: Q01DX009 (ip), vehicle: gum acacia 92 % of control | dose: 100.0 mg/kg/injection, schedule: Q04DX003 (ip), vehicle: gum acacia 92 % of control | dose: 200.0 mg/kg/injection, schedule: Q01DX009 (ip), vehicle: gum acacia 89 % of control | dose: 200.0 mg/kg/injection, schedule: Q04DX003 (ip), vehicle: gum acacia 92 % of control | dose: 400.0 mg/kg/injection, schedule: Q01DX009 (ip), vehicle: gum acacia 94 % of control | dose: 400.0 mg/kg/injection, schedule: Q04DX003 (ip), vehicle: gum acacia 93 % of control

Nc1nc(N)c(N)c(N=O)n1
inactive: dose: 100.0 mg/kg/injection, schedule: Q01DX Z (ip), vehicle: methylcellulose (MC) 86 % of control

CCOC(=O)C(Cc1ccc(Cl)c(Cl)c1)(Cc1ccc(Cl)c(Cl)c1)C(=O)OCC
inactive: [1] 104 % of control | [2] 88 % of control | [3] 97 % of control | [4] 89 % of control | dose: 400.0 mg/kg/injection, schedule: Q01DX009 (ip), vehicle: saline with Tween-80 95 % of control | dose: 400.0 mg/kg/injection, schedule: Q04DX003 (ip), vehicle: saline with Tween-80 105 % of control

CCCCOc1ccc(NC(=O)CCl)cc1
inactive: [2] 89 % of control

CCC[Si](C)(C)C
inactive: [5] 94 % of control | [6] 96 % of control | [7] 89 % of control

CCCc1cc(=O)c2ccccc2n1COC(C)=O
inactive: [8] 119 % of control | [5] 113 % of control | [6] 113 % of control

CC(C)(C)c1cc(C(=S)N2CCOCC2)cc(C(C)(C)C)c1O
inactive: [9] 103 % of control | [10] 100 % of control | [11] 86 % of control

O=C(OC1OC(COCc2ccccc2)C(OCc2ccccc2)C1OCc1ccccc1)c1ccccc1 (centres undefined)
inactive: [9] 92 % of control and 98 % of control | [10] 100 % of control and 98 % of control | [11] 94 % of control and 113 % of control

O=C1CCC(=O)N1Nc1ccccc1
inactive: [8] 104 % of control | [5] 96 % of control | [6] 102 % of control | [7] 98 % of control

CC1=[N+](C)C(C)(C)CC(C)O1 (centres undefined)
inactive: dose: 6.25 mg/kg/injection, schedule: Q01DX009 (ip), vehicle: saline 105 % of control | dose: 6.25 mg/kg/injection, schedule: Q04DX003 (ip), vehicle: saline 94 % of control | dose: 12.5 mg/kg/injection, schedule: Q01DX009 (ip), vehicle: saline 96 % of control | dose: 12.5 mg/kg/injection, schedule: Q04DX003 (ip), vehicle: saline 105 % of control | dose: 25.0 mg/kg/injection, schedule: Q01DX009 (ip), vehicle: saline 105 % of control | dose: 25.0 mg/kg/injection, schedule: Q04DX003 (ip), vehicle: saline 96 % of control

COc1cc([N+](=O)[O-])ccc1C(=O)NC(CCC(=O)O)C(=O)O (centres undefined)
inactive: [9] 95 % of control | [10] 106 % of control | [11] 100 % of control

O=[N+]([O-])c1sc2ccccc2c1O
inactive: dose: 12.5 mg/kg/injection, schedule: Q01DX009 (ip), vehicle: saline with Tween-80 99 % of control | dose: 25.0 mg/kg/injection, schedule: Q01DX009 (ip), vehicle: saline with Tween-80 99 % of control

Cc1cn[nH]c1-c1ccccc1O
inactive: dose: 100.0 mg/kg/injection, schedule: Q04DX002 (ip), vehicle: saline with Tween-80 96 % of control | dose: 200.0 mg/kg/injection, schedule: Q04DX002 (ip), vehicle: saline with Tween-80 100 % of control | dose: 400.0 mg/kg/injection, schedule: Q04DX002 (ip), vehicle: saline with Tween-80 100 % of control

c1ccc(-c2cc(-c3cc(-c4ccccc4)on3)no2)cc1
inactive: dose: 50.0 mg/kg/injection, schedule: Q04DX003 (ip), vehicle: saline with Tween-80 98 % of control | [2] 98 % of control | [4] 101 % of control

CCOC(=O)CCN(C)CCC(=O)OCC
inactive: dose: 12.5 mg/kg/injection, schedule: Q01DX009 (ip), vehicle: water 101 % of control | dose: 25.0 mg/kg/injection, schedule: Q01DX009 (ip), vehicle: water 103 % of control | dose: 25.0 mg/kg/injection, schedule: Q04DX003 (ip), vehicle: water 101 % of control | dose: 50.0 mg/kg/injection, schedule: Q01DX009 (ip), vehicle: water 105 % of control | dose: 50.0 mg/kg/injection, schedule: Q04DX003 (ip), vehicle: water 101 % of control | dose: 100.0 mg/kg/injection, schedule: Q04DX003 (ip), vehicle: water 101 % of control

Nc1c(Cl)cc(Cl)c2ccc([N+](=O)[O-])cc12
inactive: dose: 100.0 mg/kg/injection, schedule: Q01DX009 (ip), vehicle: Klucel (hydroxypropylcellulose) (HPC) 93 % of control | [12] 103 % of control | dose: 200.0 mg/kg/injection, schedule: Q01DX009 (ip), vehicle: Klucel (hydroxypropylcellulose) (HPC) 107 % of control | [13] 93 % of control | dose: 400.0 mg/kg/injection, schedule: Q01DX009 (ip), vehicle: Klucel (hydroxypropylcellulose) (HPC) 95 % of control | [14] 93 % of control

CCN=C(N)c1ccc(NC(=O)c2ccc(C(=O)Nc3ccc(C(N)=NCC)cc3)cc2)cc1
inactive: dose: 1.0 mg/kg/injection, schedule: Q01DX Z (ip), vehicle: other 115 % of control | dose: 2.0 mg/kg/injection, schedule: Q01DX Z (ip), vehicle: other 91 % of control | dose: 8.0 mg/kg/injection, schedule: Q01DX Z (ip), vehicle: carboxymethylcellulose (CMC) 100 % of control

O=c1[nH]ncn1-c1ccccc1
inactive: [12] 96 % of control | [13] 92 % of control | [14] 91 % of control

O=[N+]([O-])c1cccc(C=Nc2cccc(Cl)c2)c1
inactive: dose: 100.0 mg/kg/injection, schedule: Q04DX002 (ip), vehicle: Klucel (hydroxypropylcellulose) (HPC) 96 % of control | dose: 200.0 mg/kg/injection, schedule: Q04DX002 (ip), vehicle: Klucel (hydroxypropylcellulose) (HPC) 100 % of control | dose: 400.0 mg/kg/injection, schedule: Q04DX002 (ip), vehicle: Klucel (hydroxypropylcellulose) (HPC) 100 % of control

C1OCC(C2OCOC3COCOC32)O1 (centres undefined)
inactive: [12] 98 % of control | [13] 95 % of control | [14] 95 % of control

Cn1cc(C=O)c2nccnc21
inactive: dose: 50.0 mg/kg/injection, schedule: Q01DX009 (ip), vehicle: saline 98 % of control | dose: 100.0 mg/kg/injection, schedule: Q01DX009 (ip), vehicle: saline 95 % of control | [15] 100 % of control | dose: 200.0 mg/kg/injection, schedule: Q01DX009 (ip), vehicle: saline 98 % of control | [16] 100 % of control

CCOC(=O)c1ccc(NC(=O)Nc2c(C)n(C)n(-c3ccccc3)c2=O)cc1
inactive: dose: 100.0 mg/kg/injection, schedule: Q01DX001 (ip), vehicle: saline 87 % of control | [1] 89 % of control | [15] 89 % of control | dose: 200.0 mg/kg/injection, schedule: Q01DX001 (ip), vehicle: saline 90 % of control | [3] 86 % of control | [16] 89 % of control | dose: 400.0 mg/kg/injection, schedule: Q01DX001 (ip), vehicle: saline 92 % of control | dose: 400.0 mg/kg/injection, schedule: Q04DX003 (ip), vehicle: saline 90 % of control
